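Briefly, cells in 96-well plates were exposed to five compound concentrations for 48 h, and endpoints were estimated by linear interpolation. The concentration for 50% growth inhibition is given as GI50.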 Calls of active or inactive are those of the source. Cut-off read from the data, not from the text of the source: active = GI50 up to about 1.1 µM and inactive = higher.
Key:
Assay in all cases: NCI-60 cell line screen, 48 h
SK-MEL-2 = system: SK-MEL-2
786-0 = system: 786-0
T47D = system: T47D
MDA-N = system: MDA-N
HT-29 = system: HT-29
SK-MEL-5 = system: SK-MEL-5
SF-268 = system: SF-268
U-251 = system: U-251
UACC-62 = system: UACC-62
NCI/ADR-RES = system: NCI/ADR-RES
DU-145 = system: DU-145
PC-3 = system: PC-3
OVCAR-4 = system: OVCAR-4
Hs-578T = system: Hs-578T
MCF7 = system: MCF7
BT-549 = system: BT-549
MOLT-4 = system: MOLT-4
SK-OV-3 = system: SK-OV-3
NCI-H460 = system: NCI-H460
HL-60 = system: HL-60
HOP-62 = system: HOP-62
TK-10 = system: TK-10
M14 = system: M14
OVCAR-3 = system: OVCAR-3
OVCAR-8 = system: OVCAR-8
SN12C = system: SN12C
NCI-H226 = system: NCI-H226
SF-295 = system: SF-295
RXF 393 = system: RXF 393
UACC-257 = system: UACC-257
MDA-MB-435 = system: MDA-MB-435
HCT-15 = system: HCT-15
COLO 205 = system: COLO 205
K562 = system: K562
MDA-MB-231 = system: MDA-MB-231
SF-539 = system: SF-539
NCI-H522 = system: NCI-H522
OVCAR-5 = system: OVCAR-5
EKVX = system: EKVX
IGROV-1 = system: IGROV-1
Malme-3M = system: Malme-3M
CAKI-1 = system: CAKI-1
SNB-75 = system: SNB-75
HCT-116 = system: HCT-116
CCRF-CEM = system: CCRF-CEM
HCC 2998 = system: HCC 2998
A549 = system: A549
NCI-H23 = system: NCI-H23
A498 = system: A498
SR = system: SR
UO-31 = system: UO-31
SW-620 = system: SW-620
ACHN = system: ACHN
HOP-92 = system: HOP-92
SNB-19 = system: SNB-19
KM12 = system: KM12
RPMI-8226 = system: RPMI-8226
SK-MEL-28 = system: SK-MEL-28
LOX IMVI = system: LOX IMVI

Measured: GI50

CCc1n[nH]c(=O)n1NC(=O)/C=C\C(=O)O
inactive: SK-MEL-2 > 100 µM | 786-0 > 100 µM | T47D > 100 µM | MDA-N > 100 µM | HT-29 > 100 µM | SK-MEL-5 > 100 µM | SF-268 > 100 µM | U-251 > 100 µM | UACC-62 > 100 µM | NCI/ADR-RES > 100 µM | DU-145 > 100 µM | PC-3 > 100 µM | OVCAR-4 > 100 µM | Hs-578T > 100 µM | MCF7 > 100 µM | BT-549 > 100 µM | MOLT-4 > 100 µM | SK-OV-3 > 100 µM | NCI-H460 > 100 µM | HL-60 > 100 µM | HOP-62 > 100 µM | TK-10 > 100 µM | M14 > 100 µM | OVCAR-3 > 100 µM | OVCAR-8 > 100 µM | SN12C > 100 µM | NCI-H226 > 100 µM | SF-295 > 100 µM | RXF 393 > 100 µM | UACC-257 > 100 µM | MDA-MB-435 > 100 µM | COLO 205 > 100 µM | K562 > 100 µM | MDA-MB-231 > 100 µM | SF-539 > 100 µM | NCI-H522 > 100 µM | OVCAR-5 > 100 µM | EKVX > 100 µM | IGROV-1 > 100 µM | Malme-3M > 100 µM | CAKI-1 > 100 µM | SNB-75 > 100 µM | HCT-116 > 100 µM | CCRF-CEM > 100 µM | HCC 2998 > 100 µM | A549 > 100 µM | NCI-H23 > 100 µM | A498 > 100 µM | SR > 100 µM
> 100 µM: HCT-15

Cc1cc2nc(N3C(=O)/C(=C/c4cccc([N+](=O)[O-])c4)N=C3c3ccccc3)sc2cc1C
inactive: SK-MEL-2 23.1 µM | 786-0 40.3 µM | T47D 27.1 µM | UO-31 32.5 µM | SW-620 27 µM | MDA-N 12.5 µM | HT-29 27.5 µM | SK-MEL-5 30.1 µM | SF-268 25.9 µM | U-251 22.8 µM | ACHN 37 µM | UACC-62 33.5 µM | HOP-92 6.7 µM | SNB-19 34.1 µM | NCI/ADR-RES 28.4 µM | DU-145 42.8 µM | PC-3 17.4 µM | OVCAR-4 25.8 µM | Hs-578T 24.5 µM | MCF7 16.1 µM | BT-549 32.4 µM | MOLT-4 12.9 µM | SK-OV-3 67.8 µM | NCI-H460 29.2 µM | KM12 27.2 µM | HL-60 19.8 µM | HOP-62 35.7 µM | TK-10 71.1 µM | M14 37.2 µM | OVCAR-3 32 µM | OVCAR-8 21.4 µM | SN12C 26.7 µM | SF-295 32.4 µM | RPMI-8226 21.1 µM | RXF 393 15.6 µM | UACC-257 42.6 µM | SK-MEL-28 57.8 µM | MDA-MB-435 12.8 µM | COLO 205 36.3 µM | K562 30.1 µM | LOX IMVI 19.2 µM | MDA-MB-231 62.4 µM | SF-539 39.4 µM | OVCAR-5 40.2 µM | EKVX 18.8 µM | IGROV-1 12.5 µM | CAKI-1 52 µM | SNB-75 6.84 µM | HCT-116 23.9 µM | CCRF-CEM 9.95 µM | HCC 2998 21.4 µM | A549 36.1 µM | SR 14.9 µM
36.5 µM: HCT-15

Reference: ChEMBL document CHEMBL1201862, “PubChem BioAssay data set” (2004)
